Experimental data taken from paper PMC9146984, “A Novel Proline-Rich Cathelicidin from the Alpaca Vicugna pacos with Potency to Combat Antibiotic-Resistant Bacteria: Mechanism of Action and the Functional Role of the C-Terminal Region” (Membranes, 2022).
In brackets after ≈: the same amount, converted by molar mass. Where two headings read alike, the source gives them in different places. Where a SMILES comes first, the peptide text is derived from it. Bridges are numbered along the chain shown (N, C = ends). [ ]: non-standard residue; d: D form. The star is where a group is joined. X1 = CC[C@H](C)CCCCC(=O)*; Dab = NCC[C@H](N)C(=O)O

Assays:
[1] = tested on: E. coli MDR 1057; details: MH broth with 0.9% NaCl, 14 passages with the same agent (VicBac[1–22]: after 10 passages)
Protocol: Resistance induction experiments were performed using the previously described method. Briefly, on day one, the overnight culture of wild-type bacteria was diluted with the 2× MH broth supplemented with 1.8% NaCl to reach a final cell concentration of 10^6 CFU/mL. 50 µL of the obtained bacterial suspension were added to aliquots of 50 µL of the peptide solutions serially diluted with the sterilized 0.1% BSA in 96-well flat-bottom polystyrene microplates. After incubation for 20 ± 2 h at 37 °C and 950 rpm, MICs were determined as described above. For each subsequent daily transfer, 2–4 μL of the inoculum taken from the first well containing a sub-inhibitory drug concentration were diluted with 2 mL of the fresh 2× MH broth supplemented with 1.8% NaCl. […] Bacteria that grew at the highest concentration of AMPs on the final day were passaged a further 3 times on drug-free agar plates before determining the final MIC value.

[2] = tested on: VicBac[1–22]-resistant E. coli MDR 1057 strain; details: Mueller-Hinton broth supplemented with 0.9% NaCl; strain selected 14 days with VicBac[1-22]; cross-resistance
Protocol: (§1) Bacterial test cultures were grown in the Mueller-Hinton broth (MH; Sigma, St. Louis, MO, USA) at 37 °C to mid-log phase and then diluted with the 2× MH medium supplemented with 1.8% NaCl or without salt so that to reach a final cell concentration of 10^6 CFU/mL. 50 µL of the obtained bacterial suspension were added to aliquots of 50 µL of the peptide solutions serially diluted with sterilized 0.1% bovine serum albumin (BSA) in 96-well flat-bottom polystyrene microplates (Eppendorf #0030730011, Hamburg, Germany). […] To verify MIC values, the respiratory activity of the bacteria was determined. Briefly, 20 µL of 0.1 mg/mL resazurin (a redox indicator; Sigma, St. Louis, MO, USA) was added to the wells after 24 h of incubation, and the plate was incubated for an additional two hours. The reduction of resazurin to resorufin was measured. […] The results were expressed as the median values determined based on at least three independent experiments performed in triplicate.
(§2) Resistance induction experiments were performed using the previously described method. Briefly, on day one, the overnight culture of wild-type bacteria was diluted with the 2× MH broth supplemented with 1.8% NaCl to reach a final cell concentration of 10^6 CFU/mL. 50 µL of the obtained bacterial suspension were added to aliquots of 50 µL of the peptide solutions serially diluted with the sterilized 0.1% BSA in 96-well flat-bottom polystyrene microplates. After incubation for 20 ± 2 h at 37 °C and 950 rpm, MICs were determined as described above. For each subsequent daily transfer, 2–4 μL of the inoculum taken from the first well containing a sub-inhibitory drug concentration were diluted with 2 mL of the fresh 2× MH broth supplemented with 1.8% NaCl. […] 14 repeated passages in the presence of antimicrobial agents were made for each bacterial strain during the experiment. Bacteria that grew at the highest concentration of AMPs on the final day were passaged a further 3 times on drug-free agar plates before determining the final MIC value.

[3] = tested on: E. coli MDR CI 1057; details: Mueller-Hinton broth supplemented with 0.9% NaCl
Protocol: as §1, §2

[4] = tested on: E. coli BW25113 ΔsbmA; type: cell-based, Escherichia coli; details: Mueller–Hinton broth, 24 h, 37 °C, median
Protocol: (§3) The reduction of resazurin to resorufin was measured.

[5] = tested on: E. coli BW25113 ΔmdtM; type: cell-based, Escherichia coli; details: Mueller–Hinton broth, 24 h, 37 °C, median
Protocol: as §3

[6] = tested on: E. coli BW25113 ΔompF; type: cell-based, Escherichia coli; details: Mueller–Hinton broth, 24 h, 37 °C, median
Protocol: as §3

SMILES | increase in MIC value after serial passage selection [1] [fold] | Minimum inhibitory concentration E.coli MDR 1057 14 days with VicBac [1-22] [2] [µM] | Minimum inhibitory concentration E.coli MDR 1057 14 days w/o AMP ([3]; after 14 passages without antimicrobial agents) [µM] | Minimum inhibitory concentration E.coli MDR 1057 0 days ([3]; before passages) [µM] | Minimum inhibitory concentration, E. coli strain ΔsbmA ([4]; 0.9% NaCl: +) [µM] | Minimum inhibitory concentration, E. coli strain ΔsbmA ([4]; 0.9% NaCl: −) [µM] | Minimum inhibitory concentration, E. coli strain ΔmdtM ([5]; 0.9% NaCl: +) [µM] | Minimum inhibitory concentration, E. coli strain ΔmdtM ([5]; 0.9% NaCl: −) [µM] | Minimum inhibitory concentration, E. coli strain ΔompF ([6]; 0.9% NaCl: +) [µM] | Minimum inhibitory concentration, E. coli strain ΔompF ([6]; 0.9% NaCl: −) [µM]
CC[C@H](C)CCCCC(=O)N[C@@H](CCN)C(=O)N[C@H](C(=O)N[C@@H](CCN)C(=O)N[C@H]1CCNC(=O)[C@H]([C@@H](C)O)NC(=O)[C@H](CCN)NC(=O)[C@H](CCN)NC(=O)[C@H](CC(C)C)NC(=O)[C@@H](Cc2ccccc2)NC(=O)[C@H](CCN)NC1=O)[C@@H](C)O [Polymyxin B, polymyxin B] (X1-[Dab]T[Dab][Dab][Dab][dF]L[Dab][Dab]T; lactam 4-C (inferred); N-terminus assumed) | 128 | 1 | 0.125 (≈ 0.15 µg/mL) | 0.125 (≈ 0.15 µg/mL) |  |  |  |  |  | 
CC[C@H](C)[C@H](NC(=O)[C@H](CCCNC(=N)N)NC(=O)[C@@H](N)CCCNC(=N)N)C(=O)N[C@@H](CCCNC(=N)N)C(=O)N[C@@H](CCCNC(=N)N)C(=O)N1CCC[C@H]1C(=O)N[C@@H](CCCNC(=N)N)C(=O)N[C@@H](CC(C)C)C(=O)N1CCC[C@H]1C(=O)N[C@@H](CCCNC(=N)N)C(=O)N1CCC[C@H]1C(=O)N[C@@H](CCCNC(=N)N)C(=O)N[C@H](C(=O)N1CCC[C@H]1C(=O)O)C(C)C [VicBac[1-14]] (H-RRIRRPRLPRPRVP-OH; N-terminus and C-terminus assumed) |  |  |  |  | > 64 | 64 (≈ 117 µg/mL) | > 64 | 32 (≈ 58.4 µg/mL) | > 64 | 64 (≈ 117 µg/mL)
CC[C@H](C)[C@H](NC(=O)[C@H](CCCNC(=N)N)NC(=O)[C@@H](N)CCCNC(=N)N)C(=O)N[C@@H](CCCNC(=N)N)C(=O)N[C@@H](CCCNC(=N)N)C(=O)N1CCC[C@H]1C(=O)N[C@@H](CCCNC(=N)N)C(=O)N[C@@H](CC(C)C)C(=O)N1CCC[C@H]1C(=O)N[C@@H](CCCNC(=N)N)C(=O)N1CCC[C@H]1C(=O)N[C@@H](CCCNC(=N)N)C(=O)N[C@H](C(=O)N1CCC[C@H]1C(=O)N[C@@H](CCCNC(=N)N)C(=O)N1CCC[C@H]1C(=O)N[C@@H](CCCNC(=N)N)C(=O)N[C@H](C(=O)N1CCC[C@H]1C(=O)N1CCC[C@H]1C(=O)O)[C@@H](C)CC)C(C)C [VicBac[1-20]] (H-RRIRRPRLPRPRVPRPRIPP-OH; N-terminus and C-terminus assumed) |  |  |  |  | > 64 | 8 (≈ 20.3 µg/mL) | 4 (≈ 10.2 µg/mL) | 8 (≈ 20.3 µg/mL) | 64 (≈ 163 µg/mL) | 16 (≈ 40.7 µg/mL)
